Measured values reported in ChEMBL document CHEMBL1697781, “Assessment of the health effects of chemicals in humans: II. Construction of an adverse effects database for QSAR modeling” (Curr Drug Discov Technol, 2004).

What was measured:
Settings in all cases: human; call rule not given here
Hepatotoxicity [1] = test: FDA HLAED, gamma-glutamyl transferase (GGT) increase
Hepatotoxicity [2] = test: FDA HLAED, lactate dehydrogenase (LDH) increase
Hepatotoxicity [3] = test: FDA HLAED, serum glutamic oxaloacetic transaminase (SGOT) increase
Hepatotoxicity [4] = test: FDA HLAED, alkaline phosphatase increase
Hepatotoxicity [5] = test: FDA HLAED, liver enzyme composite activity
Hepatotoxicity [6] = test: FDA HLAED, serum glutamic pyruvic transaminase (SGPT) increase
For GGT Increase - Index Value in this document: reference of the scale not given here.
For LDH Increase - Index Value in this document: reference of the scale not given here.

SMILES	GGT Increase - Activity Score (Hepatotoxicity [1])	GGT Increase - Index Value (Hepatotoxicity [1])	GGT Increase - Number of Reports (Hepatotoxicity [1])	LDH Increase - Activity Score (Hepatotoxicity [2])	LDH Increase - Index Value (Hepatotoxicity [2])	LDH Increase - Number of Reports (Hepatotoxicity [2])	SGOT Increase - Activity Score (Hepatotoxicity [3])	SGOT Increase - Index Value (Hepatotoxicity [3])	SGOT Increase - Number of Reports (Hepatotoxicity [3])	Alkaline Phosphatase Increase - Activity Score (Hepatotoxicity [4])	Alkaline Phosphatase Increase - Index Value (Hepatotoxicity [4])	Alkaline Phosphatase Increase - Number of Reports (Hepatotoxicity [4])	Composite Activity - Active (Hepatotoxicity [5])	Composite Activity - Marginal (Hepatotoxicity [5])	Composite Activity - Score (Hepatotoxicity [5])	SGPT Increase - Activity Score (Hepatotoxicity [6])	SGPT Increase - Index Value (Hepatotoxicity [6])	SGPT Increase - Number of Reports (Hepatotoxicity [6])	also measured
Cc1nc2n(c(=O)c1CCN1CCC(c3noc4cc(F)ccc34)CC1)CCCC2 [RISPERIDONE]	Inactive	1.6	>= 4	Inactive	0.9	>= 4	Active	4.8	>= 4	Inactive	1.6	>= 4	2	0	Active	Active	4.9	>= 4	–
CC(NCCc1ccc(O)cc1)C(O)c1ccc(O)cc1 (stereo unspecified) [RITODRINE]	Inactive	0	< 4	Inactive	0	< 4	Active	4.2	>= 4	Inactive	1.1	< 4	2	0	Active	Active	4.2	>= 4	–
C=CC[N+]1([C@H]2C[C@H]3[C@@H]4CC[C@H]5C[C@H](O)[C@@H](N6CCOCC6)C[C@]5(C)[C@H]4CC[C@]3(C)[C@H]2OC(C)=O)CCCC1.[Br-] [ROCURONIUM BROMIDE]	Inactive	0	< 4	Inactive	0	< 4	Inactive	0	< 4	Inactive	0	< 4	0	0	Inactive	Inactive	0	< 4	–
CCCN1CCCC[C@H]1C(=O)Nc1c(C)cccc1C [ROPIVACAINE]	Inactive	0	< 4	Inactive	0	< 4	Inactive	0	< 4	Inactive	0	< 4	0	0	Inactive	Inactive	0	< 4	–
OCc1cc(C(O)CNCCCCCCOCCCCc2ccccc2)ccc1O (stereo unspecified) [SALMETEROL]	Inactive	0.1	< 4	Inactive	0	< 4	Inactive	0.1	< 4	Inactive	0	< 4	0	0	Inactive	Inactive	0.1	< 4	–
C#CCN(C)[C@H](C)Cc1ccccc1 [SELEGILINE]	Inactive	1.8	>= 4	Inactive	0	< 4	Inactive	0.4	< 4	Inactive	2.2	>= 4	0	0	Inactive	Inactive	1.5	>= 4	–
CN[C@H]1CC[C@@H](c2ccc(Cl)c(Cl)c2)c2ccccc21 [SERTRALINE]	Inactive	2	>= 4	Inactive	0.9	>= 4	Inactive	2.7	>= 4	Inactive	2	>= 4	–	–	–	Inactive	2.1	>= 4	Composite Activity - Active (Hepatotoxicity [5]; Liver): 0; Composite Activity - Marginal (Hepatotoxicity [5]; Liver): 0; Composite Activity - Score (Hepatotoxicity [5]; Liver): Inactive
FCOC(C(F)(F)F)C(F)(F)F [SEVOFLURANE]	Inactive	0	< 4	Inactive	1.6	< 4	Inactive	4.6	< 4	Inactive	3.1	< 4	0	0	Inactive	Inactive	0	< 4	–
CC(C)NCC(O)c1ccc(NS(C)(=O)=O)cc1 (stereo unspecified) [SOTALOL]	Inactive	1	< 4	Inactive	1	< 4	Inactive	3	< 4	Inactive	1	< 4	0	0	Inactive	Inactive	0	< 4	–
C[C@@H]1CN(c2c(F)c(N)c3c(=O)c(C(=O)O)cn(C4CC4)c3c2F)C[C@H](C)N1 [SPARFLOXACIN]	Inactive	0	< 4	Inactive	0	< 4	Inactive	0	< 4	Inactive	0	< 4	0	0	Inactive	Inactive	0	< 4	–
Cc1cn([C@H]2C=C[C@@H](CO)O2)c(=O)[nH]c1=O [STAVUDINE]	Marginally Active	3.6	>= 4	Inactive	1.8	< 4	Active	9.1	>= 4	Inactive	2.4	>= 4	2	1	Active	Active	9.7	>= 4	–
CN(N=O)C(=O)N[C@@H](C=O)[C@@H](O)[C@H](O)[C@H](O)CO [STREPTOZOCIN]	Inactive	0	< 4	Inactive	0	< 4	Inactive	0	< 4	Inactive	11.8	< 4	0	0	Inactive	Inactive	0	< 4	–
